Experimental data from patent US6773912B1, “Lantibiotic” (University of Otago, priority 1999, dated 2004).

How the values were obtained:
Type in all cases: cell-based
[1] = test system: Streptococcus pyogenes strain FF22; assay: Decrease in colony-forming units after mixing cells with salivaricin preparation; conditions: partially purified preparation of titre 16; 4 h at 37° C.; exponential Todd Hewitt broth culture cells
Experimental: The inhibitory activity of the salivaricins was determined by measurement of the decrease with time in the number of colony-forming units (CFU) of a suspension of the sensitive indicator streptococcus (Streptococcus pyogenes strain FF22) after mixing the cells with a salivaricin preparation. Twice-washed cells from an exponential Todd Hewitt broth culture of the indicator streptococcus were resuspended in 0.067 M phosphate buffer (pH 6.5) to the original culture volume. Portions of partially purified salivaricin (titre 16 Au/ml) or of phosphate buffer (control) were then mixed with an equal volume of the washed cell suspension and incubation was continued at 37° C. Survivors were determined at intervals by plating suitable 10-fold dilutions (in cold Todd Hewitt broth) of the test and control mixtures on Columbia agar base and incubating at 37° C. for 24 h. Viable counts were expressed as the total number of CFU per ml.

Branhamella catarrhalis = assay: Agar surface assay, inhibitory spectrum; conditions: 1 tested; 20 ul drops of preparation of titre 16 Ua/ml; 37° C. for 18 h
Experimental: (§1) Salivaricin activity is titrated using an agar surface assay. Drops (20 ul) of two-fold saline dilutions of the sample are assayed against Microoccus luteus T-18 on Columbia agar base. The reciprocal of the highest dilution to produce a definite zone of inhibition of the growth of the indicator lawn is the titre in arbitrary units per ml (Au/ml) of salivaricin activity.
(§2) By contrast the partially purified preparation of salivaricin A2 of titre 16 when tested using under the same conditions killed less than 10% of strain FF22 cells. Further tests of the inhibitory spectra of partially purified salivaricin A2 and salivaricin B preparations were done by using the agar surface assay described above. Drops (20 ul) of a preparation of titre 16 Ua/ml were spotted onto lawn cultures of the test strains that had been freshly inoculated by swabbing the surface of a Columbia agar base plate with a 1/100 dilution in saline of an 18 h Todd Hewitt broth culture of that strain. Production of a definite zone of inhibited test strain growth upon incubation of these plates at 37° C. for 18 h was taken to indicate sensitivity of that strain to the salivaricin.

[2] = test system: Corynebacterium diphtheriae; assay: Agar surface assay, inhibitory spectrum; conditions: 4 tested; 20 ul drops of preparation of titre 16 Ua/ml; 37° C. for 18 h
Experimental: as §1, §2

Escherichia coli = assay: Agar surface assay, inhibitory spectrum; conditions: 2 tested; 20 ul drops of preparation of titre 16 Ua/ml; 37° C. for 18 h
Experimental: as §1, §2

Lactobactillus casei = assay: Agar surface assay, inhibitory spectrum; conditions: 2 tested; 20 ul drops of preparation of titre 16 Ua/ml; 37° C. for 18 h
Experimental: as §1, §2

Staphylococcus aureus = assay: Agar surface assay, inhibitory spectrum; conditions: 4 tested; 20 ul drops of preparation of titre 16 Ua/ml; 37° C. for 18 h
Experimental: as §1, §2

[3] = test system: Stomatococcus mucilagenosus; assay: Agar surface assay, inhibitory spectrum; conditions: 4 tested; 20 ul drops of preparation of titre 16 Ua/ml; 37° C. for 18 h
Experimental: as §1, §2

Streptococcus agalactiae = assay: Agar surface assay, inhibitory spectrum; conditions: 5 tested; 20 ul drops of preparation of titre 16 Ua/ml; 37° C. for 18 h
Experimental: as §1, §2

[4] = test system: Streptococcus equisimilis; assay: Agar surface assay, inhibitory spectrum; conditions: 5 tested; 20 ul drops of preparation of titre 16 Ua/ml; 37° C. for 18 h
Experimental: as §1, §2

Streptococcus mutans = assay: Agar surface assay, inhibitory spectrum; conditions: 6 tested; 20 ul drops of preparation of titre 16 Ua/ml; 37° C. for 18 h
Experimental: as §1, §2

Streptococcus pneumoniae = assay: Agar surface assay, inhibitory spectrum; conditions: 4 tested; 20 ul drops of preparation of titre 16 Ua/ml; 37° C. for 18 h
Experimental: as §1, §2

Streptococcus pyogenes = assay: Agar surface assay, inhibitory spectrum; conditions: 15 tested; 20 ul drops of preparation of titre 16 Ua/ml; 37° C. for 18 h
Experimental: as §1, §2

Streptococcus sanguis = assay: Agar surface assay, inhibitory spectrum; conditions: 6 tested; 20 ul drops of preparation of titre 16 Ua/ml; 37° C. for 18 h
Experimental: as §1, §2

Streptococcus sobrinus = assay: Agar surface assay, inhibitory spectrum; conditions: 4 tested; 20 ul drops of preparation of titre 16 Ua/ml; 37° C. for 18 h
Experimental: as §1, §2

## salivaricin A2: BLIS co-expressed by S. salivarius K12 and K30, related but not identical to salivaricin A; sequence in FIG. 3 (KRGTGWFATITDDCPNSVFVCC; listed as Streptococcus salivarius)
[1]
  CFU killed: less than 10%
Branhamella catarrhalis
  Number of strains sensitive: 0
[2]
  Number of strains sensitive: 0
Escherichia coli
  Number of strains sensitive: 0
Lactobactillus casei
  Number of strains sensitive: 1
Staphylococcus aureus
  Number of strains sensitive: 0
[3]
  Number of strains sensitive: 0
Streptococcus agalactiae
  Number of strains sensitive: 0
[4]
  Number of strains sensitive: 5
Streptococcus mutans
  Number of strains sensitive: 0
Streptococcus pneumoniae
  Number of strains sensitive: 1
Streptococcus pyogenes
  Number of strains sensitive: 15
Streptococcus sanguis
  Number of strains sensitive: 0
Streptococcus sobrinus
  Number of strains sensitive: 0
